The values below come from publication PMC4977052, “On the Utility of ToxCast™ and ToxPi as Methods for Identifying New Obesogens” (Environmental Health Perspectives, 2016).

pEC50: −log10 of the molar value. Like-named read-outs stand apart in the source and are kept apart here.

The test system of one assay is PPARγ. The settings on record: ToxCast Phase I 2011 release; NA = not active; ref Knudsen et al. 2011; read-out: ATGT PPARγ AC50; cited from earlier work.
In assay [1] the test system is RXRα. To be noted: cited from earlier work.
In assay [2] the test system is mouse bone marrow-derived mesenchymal stem cells (mBMSCs). Type of assay: cell-based. The settings on record: 14 days, Figure 7. Here is the method:
A total of 8 × 10^4 cells/well mouse bone marrow-derived mesenchymal stem cells (mBMSCs) (OriCell™) were seeded in 12-well plates in basic medium: high-glucose DMEM (Hyclone) containing 10% calf bovine serum (Premium Select, Atlanta Biologicals), 100 IU/mL penicillin, 100 μg/mL streptomycin, and 1 mM sodium pyruvate. mBMSCs were induced to differentiate in differentiation media (low glucose αMEM containing 15% fetal bovine serum (Premium Select, Atlanta Biologicals), 100 IU/mL penicillin, 100 μg/mL streptomycin and 2 mM L-glutamine) with adipogenic cocktail (500 μM isometylbutylxanthine, 1 μM dexamethasone, 5 μg/mL insulin) and either 500 nM ROSI, 50 nM TBT or ToxCast™ chemicals (as noted for 3T3-L1 cells) for 14 days, replacing the media every 3 days.
Cells were either fixed in 3.7% formaldehyde in phosphate-buffered saline (PBS) for 30 min at room temperature (RT) for lipid quantitation, or homogenized in TriPure (Roche, Mannheim, Germany) for gene expression analysis. For lipid quantitation, fixed cells were washed twice with PBS and maintained in PBS overnight at 4°C to release residual phenol red. Background of cells were measured prior to staining. Cells were stained with 1 μg/mL Nile red (CAS No. 7385-67-3) (to detect lipid accumulation) and 1 μg/mL Hoechst 33342 (ThermoFisher Scientific) (to detect nuclei as a surrogate for cell number) in PBS for 15 min in the dark at RT and washed twice with PBS. […] Background values of Hoechst and Nile red were subtracted from the RFUs after staining and the ratio RFUNile Red:RFUHoechst was calculated. Data are represented as mean ± SEM. Total RNA was isolated using TriPure (Roche) as recommended by the manufacturer. Reverse transcription and quantitative real-time RT-PCR (QPCR) were performed using Transcriptor RT and SYBR® Green Master Mix (Roche). cDNA was quantitated in a LightCycler® 480 System (Roche Diagnostics, Basel, Switzerland) using primer sets listed in Table S4. Each primer set amplified a single band as determined by gel electrophoresis and melting curve analysis. QPCR data were analyzed using the 2^ΔΔCt method ([Livak and Schmittgen 2001]) relative to ribosomal protein 36b4, normalizing to 0.1% DMSO vehicle. Error bars represent the SEM from four to six biological replicates calculated using standard propagation of error ([Bevington and Robinson 2003]).

Another assay has as its system C/EBP. On the set-up: method as in Knudsen et al. 2011. To be noted: ToxCast Phase I 2011 release; NA = not active; ref Knudsen et al. 2011; read-out: ATGC CEBP AC50; cited from earlier work.
Another assay addresses T1, GAL4-hRXRα (Homo sapiens, UniProt P19793).
T1 construct: expressed in transfected cells; host or cells: COS7
The assay is described as follows: GAL4-hRXRα activation, transient transfection luciferase reporter in COS7 cells. Format: cell-based. The procedure:
pCMX-Gal4, pCMX-Gal4-mPPARγ, and pCMX-Gal4-hRXRα were previously described ([Grün et al. 2006]). Transient transfections were performed in COS7 cells as described ([Chamorro-García et al. 2012]). Briefly, COS7 cells were seeded at 15,000 cells per well in 96-well tissue culture plates in 10% calf bovine serum. The following day, cells were transfected in Opti-MEM at ~ 90% confluency. One microgram of CMX-GAL4 effector plasmid was co-transfected with 5 μg tk-(MH100)4-luciferase reporter and 5 μg of CMX-β-galactosidase transfection control plasmids in Opti-MEM® using Lipofectamine® 2000 reagent (Invitrogen™ Life Technologies, Carlsbad, CA, USA), following the manufacturer’s recommended protocol. All chemicals were solvated in dimethyl sulfoxide (DMSO). After overnight incubation, the medium was replaced with Dulbecco’s Modified Eagle Medium (DMEM; HyClone, Logan, UT, USA), 10% resin charcoal stripped fetal bovine serum (FBS) plus ligands at concentrations indicated in the figure legends for an additional 24 hr. DMSO concentration was maintained at 0.05% across all chemical treatments. Cells were lysed and assayed for luciferase and β-galactosidase activity as previously described ([Forman et al. 1995]). All transfections were performed in triplicate and reproduced in multiple experiments. Data are reported as fold induction or reduction over vehicle ([…]) controls ± SEM (standard error of the mean) using standard propagation of error ([Bevington and Robinson 2003]). […] The EC50, EC10, IC50, and IC10 values from NCGC and ToxCast™ are reported from gain AC50 and AC10 values in the ToxCast™ 2014 release ([Filer et al. 2014]).
Figure 4 ToxPi Chemical Activity on PPARγ and RXRα. The ability of a graded dose series of ToxPi chemicals to activate (A) GAL4-mPPARγ or (B) GAL4-hRXRα was tested in transiently transfected COS7 cells. (A, B) Data points are averages of triplicate transfections (three biological replicates). […] ToxPi chemicals were tested in 3-fold serial dilutions from 100 μM through 0.137 μM, with the final data point being 0.05% DMSO. Data are depicted as fold induction over vehicle (0.05% DMSO) controls ± SEM. (A) Rosiglitazone serves as a positive control activator for GAL4-mPPARγ. (B) LG100268 (2-[1-(3,5,5,8,8-Pentamethyl-5,6,7,8-tetrahydro-2-naphthyl)cyclopropyl]pyridine-5-carboxylic acid) serves as a positive control activator for GAL4-hRXRα. (C) EC50 and EC10 values calculated from A and B are reported and compared to other assays (see Figure S1). ATG, Attagene GAL-PPARγ or GAL-RXRα activation assay; NCGC, GeneBLAzer® GAL-PPARγ or GAL-RXRα activation assays. Triphenyltin was previously published ([Kanayama et al. 2005]).

A further assay deals with PPRE. The arrangement: method as in Knudsen et al. 2011. To be noted: ToxCast Phase I 2011 release; NA = not active; ref Knudsen et al. 2011; read-out: ATGC PPRE AC50; cited from earlier work.
Assay [3] concerns RXRα. The settings on record: ref Filer et al. 2014, cited from earlier work.
A further assay relates to 3T3-L1 preadipocytes. Briefly: 3T3-L1 adipogenesis assay (lipid accumulation, adipogenic gene expression). Type of assay: cell-based. To be noted: 0.02-20 μM, 5 days after MDI induction. The method, boiled down:
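After 2-day MDI induction with biotin and pantothenate, 3T3-L1 cells were treated 5 days with chemicals at 0.02–20 μM (0.1% DMSO; 10 μM if toxic). Lipid read as Nile red/Hoechst fluorescence ratio; adipogenic genes by QPCR, 2^ΔΔCt versus 36b4, normalized to DMSO.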

T1 sequence (P19793 with tags, fused parts or gaps limits assumed): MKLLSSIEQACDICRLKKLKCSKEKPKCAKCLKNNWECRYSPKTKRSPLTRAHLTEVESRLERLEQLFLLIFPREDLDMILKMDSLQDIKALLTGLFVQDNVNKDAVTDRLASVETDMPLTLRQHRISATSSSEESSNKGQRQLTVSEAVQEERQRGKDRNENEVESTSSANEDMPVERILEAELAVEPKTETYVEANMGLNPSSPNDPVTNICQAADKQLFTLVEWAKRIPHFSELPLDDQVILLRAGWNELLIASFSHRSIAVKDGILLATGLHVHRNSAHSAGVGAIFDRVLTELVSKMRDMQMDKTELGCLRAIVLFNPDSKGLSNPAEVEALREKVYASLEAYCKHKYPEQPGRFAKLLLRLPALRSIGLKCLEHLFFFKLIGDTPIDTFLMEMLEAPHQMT

For the molecule `N#Cc1c[nH]cc1-c1cccc2c1OC(F)(F)O2` [Fludioxonil], the half-maximal activity concentration (AC50) with PPARγ was 28 µM; in the assay with RXRα [1] (ToxCast Phase I 2011 release, NA = not active, ref Knudsen et al. 2011, read-out: NCGC RXRα AC50), 2.7 µM; in the assay with C/EBP, 21 µM; at GAL4-hRXRα (Cos-7 transient transfection) it was 14.3 µM; with PPRE, 24 µM. Moreover, the “RXRα agonist: EC10, NCGC” value in the assay with RXRα [1] (AC10, ToxCast 2014 release, ref Filer et al. 2014) is 1.20 µM. For the same molecule, the pEC50 is 5.65 with RXRα [1] (gain AC50, ToxCast 2014 release, ref Filer et al. 2014, read-out: RXRα agonist: EC50, NCGC); 4.84 on GAL4-hRXRα (COS7, ligands 24 hr, read-out: RXRα agonist: EC50, Fig 4B); 4.63 in the assay on RXRα [3] (gain AC50, ToxCast 2014 release, read-out: RXRα agonist: EC50, ATG). Moreover, the “Adipogenic differentiation of mBMSCs (result in words)” value in assay [2] was “could differentiate these uncommitted stem cells into adipocytes”. The “Activation of RXRα” value at GAL4-hRXRα (COS7, 100 μM through 0.137 μM) is “activated RXRα”. In addition, the “RXRα agonist: EC10, Fig 4B” value on GAL4-hRXRα (COS7, computed from EC50) is 5.42 µM. Also, the “Activation COS7 (result in words): RXRα activator” value on GAL4-hRXRα (Cos-7 transient transfection) is listed as “RXRα activator”. In addition, in the assay with RXRα [3] (AC10, ToxCast 2014 release), the “RXRα agonist: EC10, ATG” value was 17.93 µM. For the same molecule, the “Adipogenesis 3T3-L1 (result in words)” value in the assay with 3T3-L1 preadipocytes is on record as “Positive”.
